# Measurements from US20100197591A1, “4-AMINO-7,8-DIHYDROPYRIDO[4,3-d]PYRIMIDIN-5(6H)-ONE DERIVATIVES” (pfizer Inc, priority 2009, published 2010).
# Biological target: T1, Human full-length diacylglycerol:acylCoA acyltransferase 1 (DGAT-1) (Homo sapiens, UniProt O75907)
# T1 construct: Human full-length diacylglycerol:acylCoA acyltransferase 1 (DGAT-1) was expressed in Sf9 insect cells; made in house; host or cells: Sf9 insect cells (baculovirus); crude membrane/microsome fraction
# T1 sequence (O75907 1-488): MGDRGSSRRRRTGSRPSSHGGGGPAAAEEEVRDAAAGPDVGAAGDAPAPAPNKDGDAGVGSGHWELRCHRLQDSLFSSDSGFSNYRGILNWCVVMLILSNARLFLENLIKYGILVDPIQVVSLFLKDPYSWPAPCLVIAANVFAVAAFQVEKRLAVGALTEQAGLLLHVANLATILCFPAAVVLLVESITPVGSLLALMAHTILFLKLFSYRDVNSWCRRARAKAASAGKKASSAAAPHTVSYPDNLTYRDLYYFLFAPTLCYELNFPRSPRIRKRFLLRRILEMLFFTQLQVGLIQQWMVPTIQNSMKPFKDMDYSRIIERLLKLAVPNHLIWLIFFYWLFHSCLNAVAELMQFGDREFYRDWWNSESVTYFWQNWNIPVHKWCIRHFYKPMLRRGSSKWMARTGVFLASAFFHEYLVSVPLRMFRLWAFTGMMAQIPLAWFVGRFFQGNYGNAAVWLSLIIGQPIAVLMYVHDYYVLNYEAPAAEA
# Assay: DGAT-1 Reduced Microsome Multidose Assay, G7329F Human IC50
# Format: biochemical
# Details: crude membrane fraction of Sf9 cells expressing human DGAT-1; [14C]decanoylCoA; apparent IC50, average where tested more than once
# Experimental: Human full-length diacylglycerol:acylCoA acyltransferase 1 (DGAT-1) was expressed in Sf9 insect cells which are then lysed and a crude membrane fraction (105,000×g pellet) was prepared. The DGAT-1 gene is a human DGAT-1 gene described in J Biol Chem 273:26765 (1998) and U.S. Pat. No. 6,100,077.
# In vitro inhibition of DGAT-1 was measured using a modification, further described below, of the assay methodology described in U.S. Pat. No. 6,994,956 B2.
# The cells were cultured as follows. Sf9 cells (20 L) were infected with 4 mL of DGAT-1 Baculovirus Infected Insect Cells (BIIC) for 72 hours in a Wave Bioreactor System 20/50P (Wave Biotec/GE Healthcare).
# Crude DGAT-1 microsomes were prepared as follows. Cell pellets were washed once with ice-cold Dulbecco's phosphate-buffered saline. Cells were collected in tabletop centrifuge (Beckman GS-6KR), 15 minutes, 2000×g, 4° C. Twenty (20) mL of ice-cold Microsome Buffer (MB) was added per 5 g of cell pellet. The suspension was passed through a microfluidizer 3 times (18K psi). The lysate was transferred to centrifuge tubes and centrifuged for 20 minutes at 5000×g (Beckman-Coulter, Inc. Allegra® 64R High-Speed Refrigerated Benchtop Centrifuge, F0650 rotor) at 4° C. The supernatant was transferred to ultracentrifuge tubes and centrifuged at 125,000×g for 1 hour in a Beckman Ti-45 rotor, 4° C. The supernatant fluid was discarded. The pellet was resuspended in 70 mL of MB by sonication. The microsome concentration was determined using Bio-Rad Protein DC Protein Assay. The microsomes were filter sterilized with a 0.22 μm filter. The samples were portioned, flash frozen and stored at −80° C.
# The Microsome Buffer, used for microsome preparation, was prepared by conventional means and contained 125 mM sucrose, 3 mM imidazole, 0.2 μg/mL aprotinin, 0.2 μg/mL leupeptin and 5 mM dithiothreitol (Cleland's reagent), DGAT-1 activity was measured in 384-well format in a total assay volume of 25 μl that contained, Hepes buffer (50 mM, pH 7.5), MgCl2 (10 mM), bovine serum albumin (0.6 mg/ml), [^14C]decanoylCoA (20 μM, 58 Ci/mol) and membranes (25 μg/ml) into which 1,2 dioleoyl-sn-glycerol (75 μM) in acetone has already been incorporated. Inhibitors in DMSO were pre-incubated with membranes before initiating the DGAT-1 reaction by the addition of decanoylCoA. […] The DMSO concentration was 2.5%. The inhibitors were present at a range of eight concentrations to generate an apparent IC50 for each compound. The eight inhibitor concentration employed ranged from 10 μM to 3 nM (from high to low concentration). Specifically, the eight concentrations used were 10 μM, 3 μM, 1 μM, 300 nM, 100 nM, 30 nM, 10 nM and 3 nM.
# Reaction mixtures were neutralized by the addition of 15 μl of tris(hydroxy-methyl)aminomethane (1M, pH 8.0) and then mixed by trituration with 37.5 μl of Microscint™-E (Perkin Elmer). Plates contents were allowed to partition for 15 to 30 min before ^14C was measured in a scintillation spectrometer (Wallac Microbeta Trilux 1450-030 liquid scintillation counter 12 detector in the top-count DPM mode). Percent inhibition of test compounds was computed as […].
# Four separate assays were performed using 4 different methods of analysis. The method of analysis of Assay 1 was the same as Assay 4 (described above) except microsomes were utilized at 25 μg/mL instead of 5 μg/mL. The method of analysis of Assay 2 was the same as Assay 4 (described above) except eleven (11) concentrations of inhibitor were employed instead of eight (8). The method of analysis of Assay 3 was the same as Assay 2 except the compounds were serially diluted in a different laboratory.
# Where this DGAT-1 inhibition assay was performed on a compound more than once, an average is provided for that compound.
row,IC50 [nM],Compound
1,86.6,"COc1nc(N)c2c(n1)CCN(c1ccc(C(C)(C)F)cc1)C2=O [Example 2C, 4-amino-6-[4-(1-fluoro-1-methylethyl)phenyl]-2-methoxy-7,8-dihydropyrido[4,3-d]pyrimidin-5(6H)-one]"
2,52.8,"COc1nc(N)c2c(n1)CCN(c1ccc(C(C)(C)C(N)=O)cc1)C2=O [Example 3I, 2-[4-(4-amino-2-methoxy-5-oxo-7,8-dihydropyrido[4,3-d]pyrimidin-6(5H)-yl)phenyl]-2-methylpropanamide]"
3,90.4,"COc1nc(N)c2c(n1)CCN(c1ccc(OC(F)(F)F)cc1)C2=O [Example 1A, 4-amino-2-methoxy-6-[4-(trifluoromethoxy)phenyl]-7,8-dihydropyrido[4,3-d]pyrimidin-5(6H)-one]"
4,58.8,"COc1nc(N)c2c(n1)CCN(c1ccc(C(O)C(C)(C)C)cc1)C2=O (centres unmarked) [Example 10A, 4-amino-6-[4-(1-hydroxy-2,2-dimethylpropyl)phenyl]-2-methoxy-7,8-dihydropyrido[4,3-d]pyrimidin-5(6H)-one]"
5,32.7,"COc1nc(N)c2c(n1)CCN(c1ccc(C(C)(C)C(F)(F)F)cc1)C2=O [Example 6K, 4-amino-2-methoxy-6-[4-(2,2,2-trifluoro-1,1-dimethylethyl)phenyl]-7,8-dihydropyrido[4,3-d]pyrimidin-5(6H)-one]"
6,34.6,"COc1nc(N)c2c(n1)CCN(c1ccc(C(C)(C)OC)cc1)C2=O [Example 2D, 4-amino-2-methoxy-6-[4-(1-methoxy-1-methylethyl)phenyl]-7,8-dihydropyrido[4,3-d]pyrimidin-5(6H)-one]"
7,260,"COc1nc(N)c2c(n1)CCN(c1ccc(C(C)(C)C(=O)N(C)C)cc1)C2=O [Example 3H, 2-[4-(4-amino-2-methoxy-5-oxo-7,8-dihydropyrido[4,3-d]pyrimidin-6(5H)-yl)phenyl]-N,N,2-trimethylpropanamide]"
8,11,"COc1nc(N)c2c(n1)CCN(c1ccc(CC3CC3)cc1)C2=O [Example 1C, 4-amino-6-[4-(cyclopropylmethyl)phenyl]-2-methoxy-7,8-dihydropyrido[4,3-d]pyrimidin-5(6H)-one]"
9,20.9,"COc1nc(N)c2c(n1)CCN(c1ccc(C(C)(C)c3nnn[nH]3)cc1)C2=O [Example 3P, 4-amino-2-methoxy-6-{4-[1-methyl-1-(1H-tetrazol-5-yl)ethyl]phenyl}-7,8-dihydropyrido[4,3-d]pyrimidin-5(6H)-one]"
10,84.3,"COc1nc(N)c2c(n1)CCN(c1ccc(C(C)(C)CNC(C)=O)cc1)C2=O [Example 3U, N-{2-[4-(4-amino-2-methoxy-5-oxo-7,8-dihydropyrido[4,3-d]pyrimidin-6(5H)-yl)phenyl]-2-methylpropyl}acetamide]"
11,46,"COc1nc(N)c2c(n1)CCN(c1ccc(C(O)C(F)(F)F)cc1)C2=O (centres unmarked) [Example 1Y, 4-amino-2-methoxy-6-[4-(2,2,2-trifluoro-1-hydroxyethyl)phenyl]-7,8-dihydropyrido[4,3-d]pyrimidin-5(6H)-one]"
12,23.9,"COc1nc(N)c2c(n1)CCN(c1ccc(SC(C)(C)C)cc1)C2=O [Example 9N, 4-amino-6-[4-(tert-butylthio)phenyl]-2-methoxy-7,8-dihydropyrido[4,3-d]pyrimidin-5(6H)-one]"
13,747,"COc1nc(N)c2c(n1)CCN(c1ccc(Cl)cc1)C2=O [Example 9F, 4-amino-6-(4-chlorophenyl)-2-methoxy-7,8-dihydropyrido[4,3-d]pyrimidin-5(6H)-one]"
14,117,"CC(C)(C)c1ccc(N2CCc3ncnc(N)c3C2=O)cc1 [Example 11A, 4-amino-6-(4-tert-butylphenyl)-7,8-dihydropyrido[4,3-d]pyrimidin-5(6H)-one]"
15,74.4,"COc1nc(N)c2c(n1)CCN(c1ccc(C(=O)OC3CCCCC3)cc1)C2=O [Example 2G, Cyclohexyl 4-(4-amino-2-methoxy-5-oxo-7,8-dihydropyrido[4,3-d]pyrimidin-6(5H)-yl)benzoate]"
16,52.7,"CCc1ccc(N2CCc3nc(OC)nc(N)c3C2=O)cc1 [Example 1B, 4-amino-6-(4-ethylphenyl)-2-methoxy-7,8-dihydropyrido[4,3-d]pyrimidin-5(6H)-one]"
17,1370,"COc1nc(N)c2c(n1)CCN(c1ccc(C(=O)N(C)C)cc1)C2=O [Example 2H, 4-(4-amino-2-methoxy-5-oxo-7,8-dihydropyrido[4,3-d]pyrimidin-6(5H)-yl)-N,N-dimethylbenzamide]"
18,329,"COc1nc(N)c2c(n1)CCN(c1ccc(C(F)(F)F)cc1)C2=O [Example 6F, 4-amino-2-methoxy-6-[4-(trifluoromethyl)phenyl]-7,8-dihydropyrido[4,3-d]pyrimidin-5(6H)-one]"
19,102,"COc1nc(N)c2c(n1)CCN(c1ccc(OC(C)C)cc1)C2=O [Example 9G, 4-amino-6-(4-isopropoxyphenyl)-2-methoxy-7,8-dihydropyrido[4,3-d]pyrimidin-5(6H)-one]"
20,1400,"COc1nc(N)c2c(n1)CCN(c1ccc3nc[nH]c3c1)C2=O [Example 9J, 4-amino-6-(1H-benzimidazol-6-yl)-2-methoxy-7,8-dihydropyrido[4,3-d]pyrimidin-5(6H)-one]"
21,37.7,"COc1nc(N)c2c(n1)CCN(c1cccc(C(C)(C)C)c1)C2=O [Example 6C, 4-amino-6-(3-tert-butylphenyl)-2-methoxy-7,8-dihydropyrido[4,3-d]pyrimidin-5(6H)-one]"
22,9.66,"COc1nc(N)c2c(n1)CCN(c1ccc(C(C)C)c(F)c1)C2=O [Example 1G, 4-amino-6-(3-fluoro-4-isopropylphenyl)-2-methoxy-7,8-dihydropyrido[4,3-d]pyrimidin-5(6H)-one]"
23,648,"COc1nc(N)c2c(n1)CCN(c1ccc([S+]([O-])C(C)(C)C)cc1)C2=O (centres unmarked) [Example 9O, 4-amino-6-[4-(tert-butylsulfinyl)phenyl]-2-methoxy-7,8-dihydropyrido[4,3-d]pyrimidin-5(6H)-one]"
24,63.2,"COc1nc(N)c2c(n1)CCN(c1ccc(C3(C)CCCO3)cc1)C2=O (centres unmarked) [Example 9K, 4-amino-2-methoxy-6-[4-(2-methyltetrahydrofuran-2-yl)phenyl]-7,8-dihydropyrido[4,3-d]pyrimidin-5(6H)-one]"
25,19.8,"COc1nc(N)c2c(n1)CCN(c1ccc(C(C)C)cc1F)C2=O [Example 6G, 4-amino-6-(2-fluoro-4-isopropylphenyl)-2-methoxy-7,8-dihydropyrido[4,3-d]pyrimidin-5(6H)-one]"
26,68.9,"COc1nc(N)c2c(n1)CCN(c1ccc(Cl)c(Cl)c1)C2=O [Example 9A, 4-amino-6-(3,4-dichlorophenyl)-2-methoxy-7,8-dihydropyrido[4,3-d]pyrimidin-5(6H)-one]"
